A short description of this data set: activity coefficient (dimensionless); of the first substance listed, at infinite dilution; xn = mol fraction of the nth substance listed. Particulars: 101 kPa, Liquid, Chromatography, x1 = 0.

Numbers after ± are expanded uncertainties.

Experimental findings from the NIST ThermoML archive (doi:10.1016/j.jct.2015.07.042) are described below.

On to `C=CCCCCCCCC` [1-decene] + CCCCn1cc[n+](C)c1.COP(=O)([O-])OC, for which the activity coefficient stood at 53.5 ± 3.7 (358.15 K), 52.2 ± 3.6 (368.15 K), 50.4 ± 3.5 (378.15 K) and 49.2 ± 3.4 (388.15 K).

With `CC(C)(C)O` [2-methylpropan-2-ol] + CCCCn1cc[n+](C)c1.COP(=O)([O-])OC, the activity coefficient by setting is: (398.15 K) 0.419 ± 0.035; (408.15 K) 0.471 ± 0.037; (418.15 K) 0.527 ± 0.039; (428.15 K) 0.592 ± 0.042.

Turning to `CC(C)=O` [acetone] + CCCCn1cc[n+](C)c1.CS(=O)(=O)[O-], the activity coefficient worked out at 2.06 ± 0.14 (358.15 K), 2.12 ± 0.14 (368.15 K), 2.22 ± 0.15 (378.15 K) and 2.3 ± 0.16 (388.15 K).

With `CCCO` [propan-1-ol] + CCCCn1cc[n+](C)c1.CS(=O)(=O)[O-], the activity coefficient by setting is: (398.15 K) 0.711 ± 0.047; (408.15 K) 0.744 ± 0.049; (418.15 K) 0.783 ± 0.051; (428.15 K) 0.823 ± 0.053.

Regarding `Cc1ccc(C)cc1` [1,4-dimethylbenzene] + CCCCn1cc[n+](C)c1.COP(=O)([O-])OC, the activity coefficient reads like this: (358.15 K) 6.31 ± 0.43; (368.15 K) 6.44 ± 0.44; (378.15 K) 6.59 ± 0.45; (388.15 K) 6.86 ± 0.47.

For the compound `C1CCCCC1` [cyclohexane] + CCCCn1cc[n+](C)c1.[Cl-], the activity coefficient is, setting by setting: (358.15 K) 84.2 ± 5.8; (368.15 K) 79 ± 5.4; (378.15 K) 73 ± 5; (388.15 K) 69.8 ± 4.8.

For the compound `C1=CCCCC1` [cyclohexene] + CCCCn1cc[n+](C)c1.[Cl-], the activity coefficient is, setting by setting: (358.15 K) 22.8 ± 1.6; (368.15 K) 22.3 ± 1.5; (378.15 K) 21.5 ± 1.5; (388.15 K) 21.3 ± 1.5.

As for `CCCCO` [butan-1-ol] + CCCCn1cc[n+](C)c1.COP(=O)([O-])OC, the activity coefficient runs as follows: (398.15 K) 0.247 ± 0.03; (408.15 K) 0.271 ± 0.03; (418.15 K) 0.299 ± 0.031; (428.15 K) 0.324 ± 0.032.

As to `C=Cc1ccccc1` [styrene] + CCCCn1cc[n+](C)c1.CS(=O)(=O)[O-], the activity coefficient by setting is: (358.15 K) 3.79 ± 0.26; (368.15 K) 3.96 ± 0.27; (378.15 K) 4.2 ± 0.29; (388.15 K) 4.4 ± 0.3.

With `COC(C)(C)C` [2-methoxy-2-methylpropane] + CCCCn1cc[n+](C)c1.CS(=O)(=O)[O-], the activity coefficient was 17 ± 1.2 (358.15 K), 17.4 ± 1.2 (368.15 K), 17.9 ± 1.2 (378.15 K) and 18.6 ± 1.3 (388.15 K).

With `CCCCCCCC` [octane] + CCCCn1cc[n+](C)c1.[Cl-], the activity coefficient came to 331 ± 23 (358.15 K), 302 ± 21 (368.15 K), 268 ± 18 (378.15 K) and 258 ± 18 (388.15 K).

Take `CCOC(C)=O` [ethyl acetate] + CCCCn1cc[n+](C)c1.COP(=O)([O-])OC: the activity coefficient by setting is: (358.15 K) 3.81 ± 0.26; (368.15 K) 3.91 ± 0.27; (378.15 K) 4.01 ± 0.27; (388.15 K) 4.18 ± 0.28.

As to `CCOCC` [diethyl ether] + CCCCn1cc[n+](C)c1.[Cl-], the activity coefficient runs as follows: (358.15 K) 19.3 ± 1.3; (368.15 K) 18.9 ± 1.3; (378.15 K) 18.4 ± 1.3; (388.15 K) 18.4 ± 1.3.

For `CO` [methanol] + CCCCn1cc[n+](C)c1.COP(=O)([O-])OC, the activity coefficient (398.15 K) stood at 0.097 ± 0.03, the activity coefficient (408.15 K) turned out to be 0.105 ± 0.03, the activity coefficient (418.15 K) was 0.115 ± 0.03 and the activity coefficient (428.15 K) is 0.125 ± 0.03.

For the compound `CCC[N+](=O)[O-]` [1-nitropropane] + CCCCn1cc[n+](C)c1.CS(=O)(=O)[O-], the activity coefficient by setting is: (358.15 K) 1.89 ± 0.13; (368.15 K) 1.96 ± 0.13; (378.15 K) 2.02 ± 0.14; (388.15 K) 2.13 ± 0.14.

With `CCC(=O)CC` [pentan-3-one] + CCCCn1cc[n+](C)c1.[Cl-], the activity coefficient came out at 7.6 ± 0.52 (358.15 K), 7.72 ± 0.53 (368.15 K), 7.78 ± 0.53 (378.15 K) and 7.97 ± 0.54 (388.15 K).

With `CC1CCCCC1` [methylcyclohexane] + CCCCn1cc[n+](C)c1.CS(=O)(=O)[O-], the activity coefficient (358.15 K) was found to be 52.8 ± 3.6, the activity coefficient (368.15 K) amounted to 51.7 ± 3.5, the activity coefficient (378.15 K) was found to be 50.9 ± 3.5 and the activity coefficient (388.15 K) stood at 50.4 ± 3.5.

On to `C#CCCCCC` [1-heptyne] + CCCCn1cc[n+](C)c1.CS(=O)(=O)[O-], for which the activity coefficient amounted to 12 ± 0.82 (358.15 K), 12.6 ± 0.86 (368.15 K), 13.3 ± 0.91 (378.15 K) and 14.1 ± 0.96 (388.15 K).

For `Cc1cccc(C)c1` [1,3-dimethylbenzene] + CCCCn1cc[n+](C)c1.COP(=O)([O-])OC, the activity coefficient was determined as 6.49 ± 0.44 (358.15 K), 6.6 ± 0.45 (368.15 K), 6.73 ± 0.46 (378.15 K) and 7 ± 0.48 (388.15 K).

Turning to `C=CCCCCCCCC` [1-decene] + CCCCn1cc[n+](C)c1.CS(=O)(=O)[O-], the activity coefficient came out at 193 ± 13 (358.15 K), 187 ± 13 (368.15 K), 182 ± 12 (378.15 K) and 179 ± 12 (388.15 K).

Regarding `c1ccncc1` [pyridine] + CCCCn1cc[n+](C)c1.[Cl-], the activity coefficient was found to be 1.47 ± 0.1 (358.15 K), 1.55 ± 0.1 (368.15 K), 1.64 ± 0.11 (378.15 K) and 1.78 ± 0.12 (388.15 K).

For the compound `C1CCCCCCC1` [cyclooctane] + CCCCn1cc[n+](C)c1.CS(=O)(=O)[O-], the activity coefficient is 57.1 ± 3.9 (358.15 K), 55.7 ± 3.8 (368.15 K), 54.4 ± 3.7 (378.15 K) and 53.6 ± 3.7 (388.15 K).

In the case of `CC#N` [acetonitrile] + CCCCn1cc[n+](C)c1.COP(=O)([O-])OC, the activity coefficient (358.15 K) is 0.88 ± 0.06, the activity coefficient (368.15 K) was found to be 0.92 ± 0.06, the activity coefficient (378.15 K) is 0.95 ± 0.06 and the activity coefficient (388.15 K) amounted to 1 ± 0.06.

Take `CCCC=O` [butanal] + CCCCn1cc[n+](C)c1.COP(=O)([O-])OC: the activity coefficient (358.15 K) turned out to be 2.66 ± 0.18, the activity coefficient (368.15 K) was found to be 2.74 ± 0.19, the activity coefficient (378.15 K) came to 2.82 ± 0.19 and the activity coefficient (388.15 K) came to 2.97 ± 0.2.

`C#CCCC` [1-pentyne] + CCCCn1cc[n+](C)c1.COP(=O)([O-])OC: the activity coefficient reads like this: (358.15 K) 2.18 ± 0.15; (368.15 K) 2.32 ± 0.16; (378.15 K) 2.46 ± 0.17; (388.15 K) 2.6 ± 0.18.

As for `CC1CCCCC1` [methylcyclohexane] + CCCCn1cc[n+](C)c1.COP(=O)([O-])OC, the activity coefficient (358.15 K) was found to be 17.4 ± 1.2, the activity coefficient (368.15 K) came to 16.8 ± 1.1, the activity coefficient (378.15 K) is 16.4 ± 1.1 and the activity coefficient (388.15 K) was determined as 16.1 ± 1.1.

For the compound `CC(C)=O` [acetone] + CCCCn1cc[n+](C)c1.COP(=O)([O-])OC, the activity coefficient is 1.92 ± 0.13 (358.15 K), 1.96 ± 0.13 (368.15 K), 2.02 ± 0.14 (378.15 K) and 2.1 ± 0.14 (388.15 K).

`CC(C)O` [propan-2-ol] + CCCCn1cc[n+](C)c1.[Cl-]: the activity coefficient amounted to 0.542 ± 0.04 (398.15 K), 0.577 ± 0.041 (408.15 K), 0.619 ± 0.043 (418.15 K) and 0.668 ± 0.045 (428.15 K).

`CCCO` [propan-1-ol] + CCCCn1cc[n+](C)c1.COP(=O)([O-])OC: the activity coefficient reads like this: (398.15 K) 0.197 ± 0.029; (408.15 K) 0.218 ± 0.029; (418.15 K) 0.239 ± 0.029; (428.15 K) 0.264 ± 0.03.

As for `CCC(C)O` (configuration not stated) [butan-2-ol] + CCCCn1cc[n+](C)c1.COP(=O)([O-])OC, the activity coefficient is, setting by setting: (398.15 K) 0.327 ± 0.032; (408.15 K) 0.365 ± 0.033; (418.15 K) 0.406 ± 0.034; (428.15 K) 0.451 ± 0.036.

With `C=Cc1ccccc1` [styrene] + CCCCn1cc[n+](C)c1.COP(=O)([O-])OC, the activity coefficient worked out at 2.79 ± 0.19 (358.15 K), 2.93 ± 0.2 (368.15 K), 3.06 ± 0.21 (378.15 K) and 3.26 ± 0.22 (388.15 K).

In the case of `O` [water] + CCCCn1cc[n+](C)c1.CS(=O)(=O)[O-], the activity coefficient stood at 0.2 ± 0.029 (398.15 K), 0.214 ± 0.029 (408.15 K), 0.228 ± 0.029 (418.15 K) and 0.239 ± 0.029 (428.15 K).

For the compound `CCCCCCCC` [octane] + CCCCn1cc[n+](C)c1.CS(=O)(=O)[O-], the activity coefficient amounted to 171 ± 12 (358.15 K), 165 ± 11 (368.15 K), 160 ± 11 (378.15 K) and 155 ± 11 (388.15 K).

Turning to `C#CCCCC` [1-hexyne] + CCCCn1cc[n+](C)c1.[Cl-], the activity coefficient is, setting by setting: (358.15 K) 7.33 ± 0.5; (368.15 K) 7.85 ± 0.54; (378.15 K) 8.19 ± 0.56; (388.15 K) 8.61 ± 0.59.

As to `CCCCCCCCCC` [decane] + CCCCn1cc[n+](C)c1.[Cl-], the activity coefficient turned out to be 704 ± 48 (358.15 K), 638 ± 44 (368.15 K), 580 ± 40 (378.15 K) and 560 ± 39 (388.15 K).

Regarding `c1ccccc1` [benzene] + CCCCn1cc[n+](C)c1.[Cl-], the activity coefficient (358.15 K) came to 4.51 ± 0.31, the activity coefficient (368.15 K) worked out at 4.59 ± 0.31, the activity coefficient (378.15 K) is 4.72 ± 0.32 and the activity coefficient (388.15 K) came out at 4.82 ± 0.33.

As for `CO` [methanol] + CCCCn1cc[n+](C)c1.CS(=O)(=O)[O-], the activity coefficient (398.15 K) came out at 0.325 ± 0.032, the activity coefficient (408.15 K) turned out to be 0.34 ± 0.032, the activity coefficient (418.15 K) amounted to 0.357 ± 0.033 and the activity coefficient (428.15 K) turned out to be 0.373 ± 0.033.

With `C=COC(C)=O` [vinyl acetate] + CCCCn1cc[n+](C)c1.[Cl-], the activity coefficient by setting is: (358.15 K) 5.66 ± 0.39; (368.15 K) 5.74 ± 0.39; (378.15 K) 5.86 ± 0.4; (388.15 K) 6.05 ± 0.41.
